For 39 compounds, EC50 results are on record in US9284323B2, “Naphthalene acetic acid derivatives against HIV infection” (Gilead Sciences, Inc., priority 2012, dated 2016).

The first test has as its system HIV-IIIb. The experiment in a line: Test A: Antiviral Assays in MT4 Cells. The format is cell-based. The note with it: Human immunodeficiency virus 1, IIIB, MT4, 120 h, Table I; MT-4 cells infected with HIV-IIIb, 5 days incubation, CellTiter-Glo readout. The procedure: The antiviral properties of a compound disclosed herein may be determined using Test A described below.
Test A: Antiviral Assays in MT4 Cells
For the antiviral assay utilizing MT-4 cells, 0.4 μL of […] test concentration of 3-fold serially diluted compound in DMSO was added to 40 μL of cell growth medium (RPMI 1640, 10% FBS, 1% penicillin/Streptomycin, 1% L-Glutamine, 1% HEPES) in each well of 384-well assay plates (10 concentrations) in quadruplicate.
1 mL aliquots of 2×10e6 MT-4 cells are pre-infected for 1 and 3 hrs respectively, @ 37° C. with 25 μL (MT4) or of either cell growth medium (mock-infected) or a fresh 1:250 dilution of an HIV-IIIb concentrated ABI stock (0.004 m.o.i. for MT4 cells). Infected and uninfected cells are diluted in cell growth medium and 35 μL of 2000 (for MT4) cells is added to each well of the assay plates.
Assay plates were then incubated in a 37° C. incubator. After 5 days of incubation, 25 μl of 2× concentrated CellTiter-Glo™ Reagent (catalog # G7573, Promega Biosciences, Inc., Madison, Wis.) was added to each well of the assay plate. Cell lysis was carried out by incubating at room temperature for 2-3 min and then chemiluminescence was read using the Envision reader (PerkinElmer).
Background: In ATP-based viability assays light output follows the ATP content of the culture.
Turning to `Cc1cc2ccc(C#CC(O)(c3ccccc3)C(F)(F)F)cc2c(-c2ccc(Cl)cc2)c1[C@H](OC(C)(C)C)C(=O)O` (stereo partly drawn) [Example 9, (2S)-2-tert-butoxy-2-(1-(4-chlorophenyl)-3-methyl-7-(4,4,4-trifluoro-3-hydroxy-3-phenylbut-1-ynyl)naphthalen-2-yl)acetic acid], the EC50 (usually the concentration at which the effect is half-maximal) was 186 nM.
Compound `Cc1cc2ccc(C#CC(C)(O)c3ccccn3)cc2c(-c2ccc(Cl)cc2)c1[C@H](OC(C)(C)C)C(=O)O` (stereo partly drawn) [Example 10, (2S)-2-tert-Butoxy-2-(1-(4-chlorophenyl)-7-(3-hydroxy-3-(pyridin-2-yl)but-1-ynyl)-3-methylnaphthalen-2-yl)acetic acid] came in with a concentration giving a half-maximal response (EC50) of 62 nM.
Compound `Cc1cc2ccc(C#CC(C)(O)c3ccncc3)cc2c(-c2ccc(Cl)cc2)c1[C@H](OC(C)(C)C)C(=O)O` (stereo partly drawn) [Example 12, (2S)-2-tert-Butoxy-2-(1-(4-chlorophenyl)-7-(3-hydroxy-3-(pyridin-4-yl)but-1-ynyl)-3-methylnaphthalen-2-yl)acetic acid] displayed an EC50 of 32 nM.
For `Cc1cc2ccc(C#CC(C)(O)c3cccnc3)cc2c(-c2ccc(Cl)cc2)c1[C@H](OC(C)(C)C)C(=O)O` (stereo partly drawn) [Example 11, (2S)-2-tert-Butoxy-2-(1-(4-chlorophenyl)-7-(3-hydroxy-3-(pyridin-3-yl)but-1-ynyl)-3-methylnaphthalen-2-yl)acetic acid], the EC50 came to 24 nM.
Turning to `CC(C)(C)O[C@H](C(=O)O)c1c(-c2ccc3c4c(ccnc24)CCO3)c2ccccc2c2ccccc12` (atropisomer, axis not shown) [Example 24, (S)-2-tert-Butoxy-2-((R)-10-(2,3-dihydropyrano[4,3,2-de]quinolin-7-yl)phenanthren-9-yl)acetic acid], the response was half-maximal at 109 nM (EC50).

The same test, now with this note: Human immunodeficiency virus 1, IIIB, MT4, 120 h, Table II; MT-4 cells infected with HIV-IIIb, 5 days incubation, CellTiter-Glo readout.
For the compound `Cc1cc2cc(-c3cncnc3)ccc2c(-c2ccc3c4c(ccnc24)CCO3)c1[C@H](OC(C)(C)C)C(=O)O` (atropisomer, axis not shown) [Example 66], the EC50 worked out at 9.88 nM.
Regarding `Cc1cc2ccccc2c(-c2ccc3c4c(ccnc24)CCO3)c1C(OC(C)(C)CF)C(=O)O` (stereo not drawn) [Example 103], the concentration for a half-maximal effect (EC50) is 30.7 nM.
Still for that read-out and setting: to `Cc1cc2cc(-c3cnc(N4CCN(C)CC4)nc3)ccc2c(-c2ccc3c4c(ccnc24)CCO3)c1[C@H](OC(C)(C)C)C(=O)O` (atropisomer, axis not shown) [Example 35] belongs 4.4 nM; to `Cc1c([C@H](OC(C)(C)C)C(=O)O)c(-c2ccc3c4c(ccnc24)CCO3)c2ccccc2c1O` (atropisomer, axis not shown) [Example 83], 14.9 nM.
Consider `Cc1cc2ccccc2c(-c2ccc3c4c(ccnc24)CCO3)c1[C@H](OC(C)(C)CCCCS(N)(=O)=O)C(=O)O` (atropisomer, axis not shown) [Example 95], for which the EC50 came out at 386 nM.
`Cc1cc2ccccc2c(-c2ccc3c4c(ccnc24)CCO3)c1[C@@H](OC(C)(C)CF)C(=O)O` (atropisomer, axis not shown) [Example 101] yielded an EC50 of 4740 nM.
In the case of `Cc1cc2ccccc2c(-c2ccc3c4c(ccnc24)CCO3)c1C(OC(C)(CF)CF)C(=O)O` (stereo not drawn) [Example 106], it took 40.7 nM to reach a half-maximal effect (EC50).
Take `COc1ncc(-c2ccc3c(-c4ccc5c6c(ccnc46)CCO5)c([C@H](OC(C)(C)C)C(=O)O)c(C)cc3c2)c(OC)n1` (atropisomer, axis not shown) [Example 49]: the response was half-maximal at 13.8 nM (EC50).
Turning to `Cc1cc2ccccc2c(-c2ccc3c4c(ccnc24)CCO3)c1[C@H](OC(C)(C)CCl)C(=O)O` (atropisomer, axis not shown) [Example 99], the EC50 amounted to 40.5 nM.
In the case of `CCOc1ncc(-c2ccc3c(-c4ccc5c6c(ccnc46)CCO5)c([C@H](OC(C)(C)C)C(=O)O)c(C)cc3c2)c(OCC)n1` (atropisomer, axis not shown) [Example 50], it took 45.1 nM to reach a half-maximal effect (EC50).
`Cc1cc2cc(-c3cncnc3C(C)C)ccc2c(-c2ccc3c4c(ccnc24)CCO3)c1[C@H](OC(C)(C)C)C(=O)O` (atropisomer, axis not shown) [Example 62] gave an EC50 of 41.1 nM.
The compound `Cc1ccc2c(-c3ccc4c5c(ccnc35)CCO4)c([C@H](OC(C)(C)CF)C(=O)O)c(C)cc2c1` (atropisomer, axis not shown) [Example 64] showed an EC50 of 8.72 nM.
As to `Cc1cc2ccc(-c3cccc(-c4ccc5c(cnn5C)c4)c3)cc2c(-c2ccc(Cl)cc2)c1[C@H](OC(C)(C)C)C(=O)O` [Example 88], the EC50 was determined as 3490 nM.
With `Cc1cc2cc(-c3cnc(N4CCOCC4)nc3)ccc2c(-c2ccc3c4c(ccnc24)CCO3)c1[C@H](OC(C)(C)C)C(=O)O` (atropisomer, axis not shown) [Example 52], the EC50 was 16.8 nM.
As for `Cc1cc2c(C)c(-c3cnc(N4CCN(C)CC4)nc3)ccc2c(-c2ccc3c4c(ccnc24)CCO3)c1[C@H](OC(C)(C)C)C(=O)O` (atropisomer, axis not shown) [Example 71], the EC50 came to 4.23 nM.
`Cc1ccc2c(-c3ccc4c5c(ccnc35)CCO4)c(C(OC(C)(C)CF)C(=O)O)c(C)cc2c1` (stereo not drawn) [Example 65]: the response was half-maximal at 12.1 nM (EC50).
Compound `Cc1cc2ccccc2c(-c2ccc3c4c(ccnc24)CCO3)c1[C@@H](OC(C)(C)CCl)C(=O)O` (atropisomer, axis not shown) [Example 98] displayed an EC50 of 19400 nM.

The test is the same for the next values; noted with them: Table I; MT-4 cells infected with HIV-IIIb, 5 days incubation, CellTiter-Glo readout.
In the case of `CCOCC(C)(C)O[C@H](C(=O)O)c1c(C)cc2ccccc2c1-c1ccc2c3c(ccnc13)CCO2` (atropisomer, axis not shown) [Example 27, (2S)-2-((R)-1-(2,3-Dihydropyrano[4,3,2-de]quinolin-7-yl)-3-methylnaphthalen-2-yl)-2-(1-ethoxy-2-methylpropan-2-yloxy)acetic acid], a half-maximal response (EC50) required 84 nM.
With `CCOCC(C)(C)O[C@H](C(=O)O)c1c(C)cc2ccccc2c1-c1ccc2c3c(ccnc13)CCO2` (atropisomer, axis not shown) [Example 28, (2S)-2-((S)-1-(2,3-Dihydropyrano[4,3,2-de]quinolin-7-yl)-3-methylnaphthalen-2-yl)-2-(1-ethoxy-2-methylpropan-2-yloxy)acetic acid], the EC50 worked out at 1230 nM.

Staying with this test, now noted: Table II; MT-4 cells infected with HIV-IIIb, 5 days incubation, CellTiter-Glo readout.
In turn, `CC(C)(C)O[C@H](C(=O)O)c1c(-c2ccc3c4c(ccnc24)CCO3)c2ccccc2c2occc12` (atropisomer, axis not shown) [Example 76] returned an EC50 of 117 nM.
Compound `Cc1cc2c(C)c(-c3cncnc3)ccc2c(-c2ccc3c4c(ccnc24)CCO3)c1[C@H](OC(C)(C)C)C(=O)O` (atropisomer, axis not shown) [Example 80] showed an EC50 of 21.1 nM.
`Cc1cc2cccc(F)c2c(-c2ccc3c4c(ccnc24)CCO3)c1[C@H](OC(C)(C)C)C(=O)O` (atropisomer, axis not shown) [Example 69] came in with an EC50 of 11.3 nM.
In the case of `Cc1cc2cc(-c3cncnc3N)ccc2c(-c2ccc3c4c(ccnc24)CCO3)c1[C@H](OC(C)(C)C)C(=O)O` (atropisomer, axis not shown) [Example 53], a half-maximal effect (EC50) was put at 74.2 nM.
On the same count and under the same terms, to `Cc1cc2c(C)c(-c3cnc(N)nc3)ccc2c(-c2ccc3c4c(ccnc24)CCO3)c1[C@H](OC(C)(C)C)C(=O)O` [Example 74] belongs 37800 nM; to `Cc1cc2cc(-c3c(C)ncnc3C)ccc2c(-c2ccc3c4c(ccnc24)CCO3)c1[C@H](OC(C)(C)C)C(=O)O` (atropisomer, axis not shown) [Example 59], 471 nM; to `CC(C)(C)O[C@H](C(=O)O)c1c2c(c3ccccc3c1-c1ccc3c4c(ccnc14)CCO3)OCC2` (atropisomer, axis not shown) [Example 79], 9910 nM.
Still for that read-out and setting: in the case of `Cc1cc2c(C)c(-c3cnc(N(C)C)nc3)ccc2c(-c2ccc3c4c(ccnc24)CCO3)c1[C@H](OC(C)(C)C)C(=O)O` (atropisomer, axis not shown) [Example 72] it was 7020 nM.
`Cc1cc2cc(-c3ccc4c(cnn4C)c3)ccc2c(-c2ccc3c4c(ccnc24)CCO3)c1[C@H](OC(C)(C)C)C(=O)O` (atropisomer, axis not shown) [Example 45] gave an EC50 of 354 nM.
Regarding `Cc1cc2c(C)c(-c3cncnc3)ccc2c(-c2ccc3c4c(ccnc24)CCO3)c1[C@H](OC(C)(C)C)C(=O)O` (atropisomer, axis not shown) [Example 81], the EC50 worked out at 3370 nM.
The same measure, in the same setting: in the case of `CC(C)(C)O[C@H](C(=O)O)c1c(-c2ccc3c4c(ccnc24)CCO3)c2ccccc2c2occc12` (atropisomer, axis not shown) [Example 77] it was 32400 nM.
`Cc1cc2cc(-c3cncnc3N)ccc2c(-c2ccc3c4c(ccnc24)CCO3)c1[C@H](OC(C)(C)C)C(=O)O` (atropisomer, axis not shown) [Example 54] registered an EC50 of 19400 nM.
Compound `Cc1cc2cc(-c3cnc(-c4cncnc4)nc3)ccc2c(-c2ccc3c4c(ccnc24)CCO3)c1[C@H](OC(C)(C)C)C(=O)O` (atropisomer, axis not shown) [Example 39] registered an EC50 of 8680 nM.
In turn, `CC(C)(C)O[C@H](C(=O)O)c1c2c(c3ccccc3c1-c1ccc3c4c(ccnc14)CCO3)CCC2` (atropisomer, axis not shown) [Example 34] returned an EC50 of 60 nM.
On the same count and under the same terms, to `Cc1cc2cc(-c3ccc4c(cnn4C)c3)ccc2c(-c2ccc3c4c(ccnc24)CCO3)c1[C@H](OC(C)(C)C)C(=O)O` (atropisomer, axis not shown) [Example 44] belongs 55.6 nM.
